Data set [1] in a line: Body temperature measured in the course of heat pain tests. The conditions noted are these: rats, injection of PAM in heat pain tests.
Another data set concerns rats. Put plainly: Heat pain test, paw withdrawal latency after intraplantar injection. The data set is classed as in vivo, Sprague-Dawley rats. The conditions noted are these: for paw withdrawal latency / analgesic effect: intradermal hind paw injection, 100 μl, capsaicin 150 μM alone or with MRS1477 50 μM or TAT-De3 150 μM. Here is the method: Animals. Male Sprague-Dawley rats (200-250 g, Charles River Laboratories, Inc.) were housed under a 12 h light-dark cycle and allowed access to food and water ad libitum. The ambient temperature of the holding and testing; rooms was ˜22° C. All procedures involving animals were carried out in strict compliance with the National Institutes of Health and institutional guidelines for the humane care of animals and were approved by the Animal Care and Use Committee of Zhejiang University (Approval ID: ZJU20190100). All efforts were made to minimize both animal numbers and distress within the experiments.
Animal behavioral measurements. A 10 mM stock solution of MRS1477 was prepared in 100% DMSO and further diluted in vehicle to 2 μg/100 μl (50 μM). […] Capsaicin-only injectates contained an equal amount of DMSO as those with MRS1477. All intraplantar injections were made using a. 29 G×½″, 3/10 cc insulin syringe. The experimenter was blinded to the identity of the injectates in the various behavioral experiments.
Thermal hyperalgesia measurement was performed as reported previously (11, 35). Briefly, unrestrained rats were placed on a clear glass platform which a light beam was applied onto the plantar hind paws of the animals under a small plastic cage which allowed them to move freely. The thermal nociceptive response was defined as the latency between light stimulus onset and paw withdrawal using a feedback-controlled shutdown unit. The intensity of the light stimulus was set such that naive rats responded with a latency of approximately 5 s. Each paw was tested one time. In the absence of a response within a predetermined maximum latency (30 s), the test was terminated to prevent tissue damage. On the day of testing, rats were allowed to habituate for at least 30 min prior to thermal stimulation. […]
We observed significant analgesic effects of TAT-De3 intradermally injected into the hind paw of rats against thermal pain. […] We recorded paw withdrawal latency to reflect the pain sensation. […]

Another data set has as its system TRPV1. Kind of data set: Calcium imaging (Fluo-4) of capsaicin activation in transfected HEK293 cells. Type of data set: cell-based. To be noted: 0.5 nM capsaicin; cells expressing only TRPV1. As for the experimental part:
We then investigated whether, upon binding of the designed proteins, TRPV1 activation was positively modulated. […] Probenecid (2 mM) was included in all solutions to prevent Fluo-4 leakage from cells. At the end of incubation, cells were washed three times with ECS and incubated in the same solution for another 20 min at room temperature to complete the intracellular hydrolysis process of the AM ester, which converts the non-fluorescent Fluo-4/AM into the fluorescent version Fluo-4.
Coverslip with dye-loaded cells was placed in the quick-release magnetic chamber (Warner) and mounted on the stage of a Nikon Eclipse TE2000-U microscope system equipped with a Roper Cascade 128B CCD camera. Fluo-4 was excited by an Argon laser with a filter set of Z488/10 (excitation), z488rdc (dichroic) and recorded through an emission filter HQ5001p (all from Chroma). The duration of light exposure was controlled by a computer-driven mechanical shutter (Uniblitz). Cell images were acquired sequentially with an exposure period of 200 ms at an interval of 1 s. The shutter and the camera were controlled and synchronized by MetaMorph software (Universal Imaging).

The structures appear in SMILES notation.

In the case of `CCOC(=O)C1=C(c2ccccc2)NC(C)=C(C(=O)SCCOC)C1CC` (centres unmarked) [MRS1477], the “hyperthermia (body temperature)” value in data set [1] is on record as “did not cause hyperthemia”. Also, the “duration of analgesic effects after a single injection” value with rats (co-injected with capsaicin 150 μM) is listed as “diminished after three days”. The “paw withdrawal latency / analgesic effect” value in the data set with rats was “paw withdrawal latency was increased”.
With `COc1cc(CNC(=O)CCCC/C=C/C(C)C)ccc1O` [capsaicin, reference compound], in the data set on rats, the “paw withdrawal latency / analgesic effect” value was “no change in the paw withdrawal latency”. Moreover, in the data set on TRPV1, the calcium influx entry is “did not illicit calcium influx”.

The record behind these values is patent publication US20240166695A1, “PEPTIDIC POSITIVE ALLOSTERIC MODULATORS TARGETING TRPV1” (priority 2021, published 2024).
